Results reported in patent US11066444B2, “BMP-2-binding peptide amphiphile nanofibers” (Northwestern University, priority 2014, dated 2021).
Where “and” joins values, the source holds several entries; their conditions need not be identical. Equal values may be shown once. Residues, ends and D or L forms follow the SMILES beside them. *: point of attachment. Lauroyl = CCCCCCCCCCCC(=O)*

Columns and labels:
C2C12 cells [1] = test: Alkaline phosphatase (ALP) stain, BMP-2-induced osteoblast differentiation; type: cell-based; details: 50 ng/mL BMP-2, PA or heparin 0.1-10 μg/mL, 3 days
Description: (§1) C2C12 pre-myoblasts were maintained and treated with BMP-2 as depicted in FIG. 5A. C2C12 cells were seeded at 2×10^4 cells/cm2 in 24-well plates in growth media (DMEM with 10% heat-inactivated FBS and 100 U/mL penicillin/streptomycin, P/S) 1 day before treatment. On the following day (Day 0), growth media was replaced with 900 μL maintenance media (growth media with 2.5% FBS) and 100 μL treatment media containing BMP-2 with heparin or PAs. Preparation of the treatment media was as follows: 2.5 μL of BMP-2 stock ([…]) was mixed with 5 μL of heparin or PA stock solutions (0.02, 0.2, or 2 mg/mL), incubated for 5 min on ice, then mixed with DMEM (100 U/mL P/S) to a final volume of 100 μL, followed by 5 min incubation on ice. For treatments with BMP-2 only, the treatment media was prepared according to the method described except without heparin or PAs. Final working concentrations were 50 ng/mL BMP-2 and a range of 0.1, 1, to 10 μg/mL heparin or PAs.
The presence of ALP was stained as a marker for osteoblast differentiation on day 3 by enzymatic labeling described by Mason and Woolston (herein incorporated by reference in its entirety). C2C12 cell layer was fixed with 4% paraformaldehyde (PFA) for 30 s, washed with PBS three times, and stained for 1 h with Naphthol AS-MX phosphate (Sigma-Aldrich, St. Louis, Mo.) and Fast Blue BB salt (Sigma-Aldrich) in 0.1M Tris-HCl at pH 8.2, followed by washing with PBS.

C2C12 cells [2] = test: Cell cytotoxicity assay (LDH release, live/dead); type: cell-based; details: 10 μg/mL, 5 h, without BMP-2
Description: C2C12 cells were treated with 10 μg/mL heparin or PAs for 5 h (Day 0), and a fraction of the media was collected to measure the presence of lactate dehydrogenase (LDH), a cytosolic enzyme only released upon cell lysis, using CytoTox 96 Non-Radioactive Cytotoxicity Assay (Promega, Madison, Wis.) (n=6). In addition, the remaining cells were stained for viable and dead cells using LIVE/DEAD Viability/Cytoxocity Kit (Invitrogen, Grand Island, N.Y.).

[3] = Critical micelle concentration by Nile red fluorescent probe assay; type: physicochemical; details: pH 7.4, Nile red
Description: To assess PA nanofiber stability, we measured the critical micelle concentration (CMC) of PAs by Nile red fluorescent probe assay (Boekhoven, A. M. Brizard, P. van Rijn, M. C. A. Stuart, R. Eelkema, J. H. van Esch, Angewandte Chemie (International ed in English) 2011, 50, 12285; herein incorporated by reference in its entirety). At pH 7.4, the supramolecular assembly of the BMP-2-binding PA was detected at above 666 nM (1.5 μg/mL), and that of the diluent PA was detected at above 1 μM (1.2 μg/mL) (FIG. 3). The binding affinities of the PAs to BMP-2 were investigated by surface plasmon resonance (SPR) using hexahistidine-tagged BMP-2 (His-BMP-2) that was immobilized on the surface via nickel (II)-nitrilotriacetic acid (Ni^2+-NTA) chelation (Knecht, D. Ricklin, A. N. Eberle, B. Ernst, J. Mol. Recognit. 2009, 22, 270; herein incorporated by reference in its entirety). As a control, the BMP-2-binding PA (1 μm, pH 7.4) was injected to a bare NTA-dextran chip, and we observed non-specific binding of the PA to the surface (FIG. 4). […]
Critical micelle concentration measurements were performed using Nile Red fluorescence spectroscopy. […] These samples were vortexed, sonicated, and were allowed to equilibrate for 24 hours before fluorescence spectra were obtained. For pH 8.5, PA samples were horn sonicated prior to the addition of Nile Red, and fluorescence spectra were obtained the same day.

C2C12 cells [4] = test: Real-time PCR of osteogenic genes (Runx2, Osx, Ocn); type: cell-based; details: 50 ng/mL BMP-2, 10 μg/mL, 2 days
Description: C2C12 cells were treated with 50 ng/ml BMP-2 in the presence of 10 μg/mL heparin or PAs until Day 2, and the osteogenic gene expression levels were determined by real-time PCR as described by Zhao et al. (n=4, in triplicate experiments). Briefly, total RNAs were isolated from cells using TRIzol (Invitrogen) and reverse-transcribed using iScript Reverse Transcription Supermix (Bio-Rad, Des Plaines, Ill.). PCR amplification was analyzed with iQ5 Real-Time PCR Detection System (Bio-Rad) using iQ SYBR Green Supermix (Bio-Rad) and the following primers: Runx2 types II & III (Runx2), 5′-[…]-3′(SEQ ID NO:5) and 5′-CCAAAAGAAGCTTTGCTG-3′ (SEQ ID NO:6); Osterix (Osx), 5′-[…]-3′(SEQ ID NO:7) and 5′-[…]-3′(SEQ ID NO:8); Osteocalcin (Ocn), 5′-[…]-3′(SEQ ID NO:9) and 5′-[…]-3′(SEQ ID NO:10); and Glyceraldehyde-3-phosphate dehydrogenase (GAPDH), 5′-[…]-3′(SEQ ID NO:11) and 5′-[…]-3′(SEQ ID NO:12) (IDT, Coralville, Iowa). For PCR amplification, cDNA was denatured at 94° C. for 5 min, then underwent 40 repeated cycles at 94° C. for 45 s, annealing at 55° C. for 1 min, and extension at 68° C. for 1 min, followed by 79 repeated cycles at 55° C. for 30 s for generation of a melting curve. Expression values of Runx2 II, Osx, and Ocn were normalized to the respective GAPDH levels, and all treatments were normalized to control (BMP-2 only) treatment in order to represent relative fold increase.

C2C12 cells [5] = test: Alkaline phosphatase (ALP) activity assay, BMP-2-induced osteoblast differentiation; type: cell-based; details: 10 μg/mL, without BMP-2, 4 days
Description: as §1, with “Final working concentrations were 50 ng/mL BMP-2 and a range of 0.1, 1, to 10 μg/mL heparin or PAs.” left out
ALP activity from C2C12 cell layer was measured using QUANTI-Blue ALP substrate (InvivoGen, San Diego, Calif.). […] The plate was incubated at 37° C. for 18 h and absorbance was measured at 630 nm on SpectraMax M5 Microplate Reader (Molecular Devices, Sunnyvale, Calif.). […] The absorbance values from QUANTI-Blue ALP assay was normalized by the amount of dsDNA in each sample, and the resulting values from heparin and PA treatments were normalized to control (BMP-2 only) to represent the relative fold increase (n=3, in triplicate experiments).

| Molecule | number of ALP-positive cells (C2C12 cells [1]) | cytotoxicity (C2C12 cells [2]) | critical micelle concentration (supramolecular assembly detected at above) [3] | osteoblastic differentiation by mRNA levels relative to BMP-2 alone (C2C12 cells [4]) | ALP expression without BMP-2 (C2C12 cells [5]) |
| --- | --- | --- | --- | --- | --- |
| CCCCCCCCCCCC(=O)NCCCC[C@H](NC(=O)[C@@H](NC(=O)[C@@H](NC(=O)[C@@H](NC(=O)[C@H](C)NC(=O)[C@H](C)NC(=O)[C@H](C)NC(=O)[C@H](CCC(=O)O)NC(=O)[C@H](CCC(=O)O)NC(=O)[C@H](CCC(=O)O)NC(=O)[C@H](CO)NC(=O)CNC(=O)CNC(=O)CNC(=O)[C@H](Cc1ccc(O)cc1)NC(=O)[C@@H]1CCCN1C(=O)[C@@H](NC(=O)[C@H](Cc1c[nH]cn1)NC(=O)[C@@H]1CCCN1C(=O)[C@H](CO)NC(=O)[C@@H](N)[C@@H](C)O)C(C)C)C(C)C)C(C)C)C(C)C)C(N)=O [BMP-2-binding PA, C12-(K)V3A3E3-SGGGYPVHPST-NH2] (H-TSPHVPYGGGSEEEAAAVVVK(Lauroyl)-NH2; N-terminus and C-terminus assumed) | slight increase in the number of ALP-positive cells | did not induce cytotoxicity | above 666 nM and > 1.5 μg/mL | enhanced osteoblastic differentiation | – |
| CCCCCCCCCCCCCCCC(=O)N[C@H](C(=O)N[C@H](C(=O)N[C@H](C(=O)N[C@@H](C)C(=O)N[C@@H](C)C(=O)N[C@@H](C)C(=O)N[C@@H](CCC(=O)O)C(=O)N[C@@H](CCC(=O)O)C(=O)N[C@@H](CCC(=O)O)C(=O)O)C(C)C)C(C)C)C(C)C [diluent PA, C16-V3A3E3-COOH] (HELM PEPTIDE1{[CCCCCCCCCCCCCCCC(=O)[*:2]].V.V.V.A.A.A.E.E.E}$$$$V2.0) | increased number of ALP-positive cells | did not induce cytotoxicity | above 1 μM and > 1.2 μg/mL | enhanced osteoblastic differentiation | – |
| heparin sodium [reference compound] | directly proportional association of the number of ALP-positive cells with heparin concentrations up to 10 μg/mL | did not induce cytotoxicity | – | enhanced osteoblastic differentiation | did not promote ALP expression |
